This assay relates to CEM cells HIV-1 protection, formazan growth assay. Briefly: NCI AIDS Antiviral Assay. The note with it: for IC50: measured here: growth of uninfected CEM cells. The procedure:
The ability of compounds to protect human CEM cells from HIV-1 infection is measured as a screen for new compounds capable of inhibiting the HIV virus. Five concentrations of drug were tested on uninfected and infected cells and cell growth was measured using a soluble formazan assay. […] Compounds that provided at least 50% protection were retested. Compounds that provided at least 50% protection on retest were listed as moderately active. Compounds that reproducibly provided 100% protection were listed as confirmed active. […] Note that the inability to provide protection could be due to toxicity.

Structures are written as SMILES. Several values for one entry are separate records, joined by “and”; a condition that tells them apart may be missing. Equal values may be shown once. Activity calls are given as the source filed them.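 Rule for the calls: active = compounds giving half or more protection of infected cells from virus-caused growth loss, again on retest; inactive = the rest.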

Consider `N#Cc1cn(C2OC(CO)C(O)C2O)c2ncnc(N)c12` (configuration not stated), for which the EC50 (usually the concentration at which the effect is half-maximal) is more than 0.2 µM and the concentration for half-maximal inhibition (IC50) – broadly, the point on the concentration scale where inhibition reaches its midpoint – turned out to be 0.00151 µM.

As to `C=CC[C@@]12CCC(=O)C=C1CCCC2=O`, the outcome was inactive. Take `CCOC(=O)c1c(Sc2ccc([N+](=O)[O-])cc2[N+](=O)[O-])nc2c3ccccc3ccn12`: the EC50 is more than 200 µM and the IC50 is more than 200 µM. For the compound `COc1ccc2c(c1)Oc1cc(O)ccc1[C@H]2c1ccccc1C(=O)NC(C)c1ccccc1` (some centres not stated), the EC50 was more than 15.8 µM and the IC50 is 13.8 µM. In the case of `CCCCCC(=O)c1ccc2[nH]c3c(C)cc([N+](=O)[O-])c(C)c3c2c1`, the EC50 was more than 4.27 µM and the IC50 was more than 4.27 µM. On to `CCCCCCCCCCCCCCCCCC(=O)OCC(O)CO` (configuration not stated), for which the EC50 is more than 2.09 µM and the IC50 is more than 2.09 µM.

As to `c1nc2nc3c(cn2n1)CCCCC3`, the EC50 was more than 200 µM and the IC50 was more than 200 µM. Turning to `O=C(O)C(CS(=O)(=O)O)Nc1ccc([N+](=O)[O-])cc1[N+](=O)[O-]` (configuration not stated), the EC50 is more than 692 µM and the 50% inhibitory concentration (IC50) is more than 692 µM. As to `Nc1cc(N2CCOCC2)nc(=O)n1-c1ccc(Cl)cc1`, the EC50 is more than 200 µM and the IC50 was more than 200 µM.

Regarding `OCCN(CC(O)C(O)CN(CCO)C(=S)S)C(=S)S` (configuration not stated), the EC50 is more than 58.9 µM and the IC50 is more than 58.9 µM. For the compound `[Se]c1nc2ccccc2o1`, the EC50 is more than 224 µM and the IC50 stood at 53.7 µM. As for `C[C@@H]1C(=O)CC2C(C)(C)CCC[C@]2(C)[C@@]12CC[C@]1(C=COC1)O2` (some centres not stated), the EC50 is more than 50.1 µM and the IC50 is more than 50.1 µM. For the compound `O=c1oc2ccccc2cc1-c1ccccc1`, the EC50 was more than 162 µM and the IC50 is more than 162 µM.

As to `CC(/C=N/NC1=NCCCN1)=N\NC1=NCCCN1`, the EC50 is more than 200 µM and the half-inhibitory concentration (IC50) was more than 200 µM. As for `CC(=O)Nc1ccc(C(=O)CCC(NC(C)=O)(C(=O)O)C(=O)O)cc1`, the EC50 was more than 200 µM and the IC50 is more than 200 µM. Regarding `O=c1[nH]c(Nc2ccccc2)nc2c1ncn2CC(O)CSCCO` (configuration not stated), the EC50 is more than 200 µM and the IC50 was more than 200 µM. With `CCc1ccc(C2=C(O)C(=O)C(c3ccc(CC)cc3)=C(O)C2=O)cc1`, the EC50 is more than 70.8 µM and the concentration for half-maximal inhibition (IC50) came to 9.77 µM.

Turning to `CCN(CC)C1=Nc2ccccc2-n2ccnc2C1`, the outcome was inactive.

Consider `O=C(Nc1ccc(C2=NCCN2)cc1)c1cncc(C(=O)Nc2ccc(C3=NCCN3)cc2)c1`, for which the EC50 was 9.77 µM and the IC50 stood at 132 µM. On the same counts, the results for `COc1c2c(c(OC)c3c1C(=O)c1ccccc1C3=O)C(=O)CCC2` are more than 8.13 µM and more than 8.13 µM. Turning to `Nc1ccc2ccc(N3CCNCC3)nc2n1`, the EC50 is more than 200 µM and the concentration for half-maximal inhibition (IC50) amounted to 46.8 µM. As for `Cc1cc(O)c(C(C)C)cc1C1(c2cc(C(C)C)c(O)cc2C)OS(=O)(=O)c2ccccc21`, the result was inactive. With `CS1(C)=NC(=O)C2=C(N=1)c1ccccc1S2(=O)=O`, the EC50 was more than 47.9 µM and the half-inhibitory concentration (IC50) was more than 47.9 µM.

`CCCc1cc2c(=O)c(C(=O)OC)c[nH]c2cc1N(CC)CC`: the EC50 is more than 200 µM and the half-inhibitory concentration (IC50) was more than 200 µM.

Regarding `Oc1[nH]c(=S)sc1/C=C1\C=Nc2ccccc21`, the EC50 is more than 501 µM and the IC50 was determined as 195 µM. On the same counts, the results for `CCCCSC1=NCCCS1` are more than 275 µM and more than 275 µM. Regarding `NCP1(=O)CNC(=O)NC1`, the EC50 is more than 1510 µM and the 50% inhibitory concentration (IC50) is more than 1510 µM. In the case of `CC1(C)CCc2cc3c(cc2O1)OCC1c2cc4c(cc2OC31)OCO4` (configuration not stated), the result was inactive. Take `Fc1ccc(CN2COc3c(cc(Cl)c4cccnc34)C2)cc1`: the EC50 is more than 200 µM and the IC50 was 0.977 µM.

Take `OCC1OC(O)C(N=C/C=C/c2ccccc2)C(O)C1O` (configuration not stated): the EC50 was more than 200 µM and the half-maximal inhibitory concentration (IC50) is 22.9 µM. For `Nc1c(C(=O)N/N=C/c2ccc(Cl)cc2)sc(=S)n1-c1ccccc1`, in that order: more than 3.72 µM and more than 3.72 µM.

Turning to `Cc1ccnc2c1C(=O)C(=O)C=C2N1CCOCC1`, the outcome was inactive. As for `COc1cc(O)c2c(=O)c3ccccc3n(C)c2c1`, the EC50 is more than 200 µM and the IC50 is 11.2 µM. On to `N#Cc1nc(-c2ccccn2)oc1N`, for which the EC50 is more than 200 µM and the IC50 was more than 200 µM.

On to `C/C(=N/NC(=S)N1CCCCC1)c1cccc(/C(C)=N\NC(=S)N2CCCCC2)n1`, for which the EC50 was more than 200 µM and the concentration for half-maximal inhibition (IC50) came out at 13.2 µM. For `COC(=O)c1ccc(COC(=O)N2C=CCC2C(=O)O)cc1` (configuration not stated), in that order: more than 200 µM and more than 200 µM. For `Nc1ccc(S(=O)(=O)Nc2nc3ccccc3nc2N2CCCCCC2)cc1`, the EC50 was more than 200 µM and the IC50 was determined as 33.1 µM. As to `O=c1cnn(C2OC(C(O)CO)C(O)C2O)c(=O)[nH]1` (configuration not stated), the result was inactive. For `CCCCCCNCCCNc1c2ccccc2nc2cccc([N+](=O)[O-])c12`, the EC50 was more than 2 µM and the IC50 worked out at 0.138 µM. For `CCOC(=O)C(Cc1c(-c2[nH]c3ccccc3c2CC(NC(=O)CNC(C)=O)C(=O)OCC)[nH]c2ccccc12)NC(=O)CNC(C)=O` (configuration not stated), in that order: more than 100 µM and 21.9 µM. Consider `COc1cc2c(cc1OC)C1Cc3sccc3CN1CC2` (configuration not stated), for which the result was inactive. Consider `CCOC(=O)C1c2[nH]c3ccccc3c2CCN1C(=O)c1ccco1` (configuration not stated), for which the EC50 is more than 77.6 µM and the IC50 was more than 77.6 µM. Turning to `Nc1cc(=O)[nH]c(SC2=NC(N)CC(O)C2)n1` (configuration not stated), the outcome was inactive. For the compound `COc1ccc(COCCOCc2nc(C#N)c(N)o2)cc1`, the EC50 is more than 200 µM and the 50% inhibitory concentration (IC50) is 135 µM. For `Oc1ccc2ccccc2c1C=Nc1ccc(SSc2ccc(N=Cc3c(O)ccc4ccccc34)cc2)cc1`, in that order: more than 200 µM and 30.2 µM. For `CC(=O)N1C(=O)C(C)(C2=CC(=O)c3ccccc3C2=O)c2ccc(Br)cc21` (configuration not stated), in that order: more than 200 µM and 2.29 µM. Take `CN(C)/N=N/c1nc2c(c(=O)n(C)c(=O)n2C)n1CC(O)CO` (configuration not stated): the EC50 was more than 200 µM and the 50% inhibitory concentration (IC50) is more than 200 µM. With `CN1CCN(CC(=O)Nc2cccc3ccccc23)CC1`, the EC50 is more than 200 µM and the IC50 is more than 200 µM. `C=C(C)[C@H]1C2=CC(C(=O)OC)=C(C[C@H](C(=C)C)[C@@H](O)[C@@H](O)C3=C[C@H]1OC3=O)O2`: the EC50 was more than 200 µM and the IC50 turned out to be 93.3 µM. On the same counts, the results for `CCOP(=O)(OCC)c1c(C(=O)OC)cc(=O)[nH]c1-c1ccc(C)cc1` are more than 200 µM and 7.94 µM.

For the compound `CC(C)(C)O/N=C/c1cc(NC(=S)c2ccccc2)ccc1Cl`, the EC50 was 0.135 µM and the IC50 came to 10.7 µM. As to `COC1OC(=O)C(OC)C(OC)C1OC` (configuration not stated), the result was inactive.

On to `CC1CC(C)CC(NC2=NCCO2)C1` (configuration not stated), for which the EC50 is more than 200 µM and the IC50 was more than 200 µM. With `Cc1ccc(NC(=O)C(=O)CC(=O)c2ccccc2)cc1C`, the EC50 was more than 4.9 µM and the IC50 was more than 4.9 µM. On to `N#Cc1cc(C#N)c(N)nc1N`, for which the EC50 is more than 200 µM and the IC50 was more than 200 µM. As to `CC(C)CCCC(C)C1CCC2C3CC(OC4OC(CO)C(O)C(O)C4O)C4C[C@@H](OS(=O)(=O)O)CC[C@]4(C)C3CC[C@]12C` (some centres not stated), the EC50 is more than 37.2 µM and the IC50 turned out to be 15.1 µM. For `COC(=O)CCc1ccc2c(c1)CCC2`, the EC50 was more than 200 µM and the half-maximal inhibitory concentration (IC50) is more than 200 µM. For `C=C(Br)CN1CCC2(c3ccccc3)C(=O)C([Se]c3ccccc3)CCC12` (configuration not stated), the EC50 was more than 14.8 µM and the IC50 is more than 14.8 µM. As for `Cc1cc(S(=O)(=O)Nc2n[nH]c(N)n2)c(SCC(=O)O)cc1Cl`, the EC50 was more than 200 µM and the concentration for half-maximal inhibition (IC50) is more than 200 µM. With `O=c1[nH]c(=O)n(C2OC(CO)C(O)C2O)cc1NN=NCc1ccccc1` (configuration not stated), the EC50 was more than 182 µM and the concentration for half-maximal inhibition (IC50) was more than 182 µM.

Take `S=C1NC2(CCCCC2)N2C(=S)NC3(CCCCC3)N12`: the result was inactive. Take `O=C(O)CC/C(=N\Nc1nsc2ccccc12)c1ccc(Cl)cc1`: the EC50 was more than 10.5 µM and the IC50 came to 6.76 µM. For `COc1ccc(N2C(=O)C3c4[nH]c5ccc(OC)cc5c4C4CCC(c5ccccc5)CC4C3C2=O)cc1` (configuration not stated), in that order: more than 100 µM and 67.6 µM. Turning to `Cc1cc(C)cc(OCC2CNC(=O)O2)c1` (configuration not stated), the EC50 is more than 200 µM and the IC50 was more than 200 µM. With `COc1cccc(/C=C/C(=O)c2ccccc2)c1`, the EC50 was more than 57.5 µM and the half-inhibitory concentration (IC50) was 11 µM. As to `CC1=CC(C)(C)N=C2SC(c3ccc(N)cc3)=NN12`, the EC50 was more than 251 µM and the half-maximal inhibitory concentration (IC50) is 2 µM.

In the case of `C=C(C)COC1CCCCO1` (configuration not stated), the EC50 was more than 200 µM and the IC50 came to 38 µM. On the same counts, the results for `COC(=O)C1=COC(C)C2CN3CCc4c([nH]c5cc(OC)ccc45)C3CC12` (configuration not stated) are more than 46.8 µM and more than 46.8 µM. Consider `Cc1cc(C)nc(NS(=O)(=O)c2ccc(Nc3c4ccccc4nc4ccc(C(=O)Nc5ccc(S(N)(=O)=O)cc5)cc34)cc2)n1`, for which the EC50 was more than 200 µM and the IC50 worked out at 89.1 µM.

As to `COc1cc2c(cc1OC)-c1cc3cc(OC)c(OC)cc3c(=O)n1CC2`, the EC50 is more than 200 µM and the IC50 came out at 7.24 µM. For the compound `COc1cc(-c2c(C(C)=O)c(-c3ccccc3)n(C3OC(COC(C)=O)C(OC(C)=O)C(OC(C)=O)C3OC(C)=O)c(=S)c2C#N)ccc1O` (configuration not stated), the EC50 is more than 200 µM; the IC50 is 74.1 µM and 45.7 µM. Regarding `C=C(c1ccccc1)c1ccccc1-c1cc(-c2ccccc2)cc(-c2ccccc2)n1`, the EC50 was more than 200 µM and the IC50 turned out to be 25.1 µM. `Cn1c(=O)c2nc(-c3ccccc3)oc2n(C)c1=O`: the outcome was inactive. With `COC(=O)c1ccc2c(c1)CC1(C2)Cc2cc3c(c(C(=O)OC)c2C1)CCCC3` (configuration not stated), the EC50 was more than 200 µM and the IC50 is more than 200 µM.
